Patent publication US20070049564A1 (Wyeth, priority 2005, published 2007)
≈ marks a conversion by molar mass, not a printed value. Where two headings read alike, the source gives them in different places.

Key:
[1] = system: E. coli GC 2236; test: MIC, broth microdilution; details: Escherichia coli
[2] = system: E. coli GC 2231; test: MIC, broth microdilution; details: Escherichia coli
[3] = system: E. coli GC 2235; test: MIC, broth microdilution; details: Escherichia coli
[4] = system: E. coli GC 2233; test: MIC, broth microdilution; details: Escherichia coli
[5] = system: E. coli GC 2234; test: MIC, broth microdilution; details: Escherichia coli
[6] = system: E. coli GC 2272; test: MIC, broth microdilution; details: Escherichia coli
[7] = system: E. coli GC 4560; test: MIC, broth microdilution; details: Escherichia coli
[8] = system: E. coli GC 6465; test: MIC, broth microdilution; details: Escherichia coli
[9] = system: E. coli GC 2203; test: MIC, broth microdilution; details: Escherichia coli
[10] = system: S. typhimurium GC 2172; test: MIC, broth microdilution; details: Salmonella enterica, TYPHIMURIUM
[11] = system: S. aureus GC 1131; test: MIC, broth microdilution; details: Staphylococcus aureus
[12] = system: S. aureus GC 6466; test: MIC, broth microdilution; details: Staphylococcus aureus
[13] = system: S. aureus GC 6467; test: MIC, broth microdilution; details: Staphylococcus aureus
[14] = system: S. aureus GC 1079; test: MIC, broth microdilution; details: Staphylococcus aureus
[15] = system: S. epidermidis GC 4935; test: MIC, broth microdilution; details: Staphylococcus epidermidis
[16] = system: E. faecalis GC 4555; test: MIC, broth microdilution; details: Enterococcus faecalis
[17] = system: E. faecalis GC 2267; test: MIC, broth microdilution; details: Enterococcus faecalis
[18] = system: E. faecium GC 4556; test: MIC, broth microdilution; details: Enterococcus faecium
[19] = system: S. pneumoniae* GC 4465; test: MIC, broth microdilution; details: Streptococcus pneumoniae
[20] = system: Staph.; test: Range of MIC for Staph. strains, including MRSA; details: Staphylococcus aureus
Description: Antimicrobial susceptibility testing. The in vitro activities of the antibiotics are determined by the broth microdilution method as recommended by the National Committee for Clinical Laboratory Standards (NCCLS) (1). Mueller-Hinton II broth (MHBII)(BBL Cockeysville, Md.) is the medium employed in the testing procedures. Microtiter plates containing serial dilutions of each antimicrobial agent are inoculated with each organism to yield the appropriate density (10^5 CFU/ml) in a 100 μl final volume. The plates are incubated for 18-22 hours at 35° C. in ambient air.
Representative compounds were first incubated in mouse serum for an hour prior to the in vitro testing against a panel of selected gram-positive and gram-negative bacteria strains. All compounds were also pre-incubated in water for an hour prior to testing as control. Representative compounds of Formula I were incubated in human serum prior to MIC determination.

[21] = read-out: MINIMAL INHIBITORY CONCENTRATION MIC, Human Serum
[22] = read-out: MINIMAL INHIBITORY CONCENTRATION MIC, Mouse Serum
[23] = read-out: MINIMAL INHIBITORY CONCENTRATION MIC, Water

CC(C)COC(=O)N(CC(=O)Nc1cc(N(C)C)c2c(c1O)C(=O)C1=C(O)[C@]3(O)C(=O)C(C(N)=O)=C(O)[C@@H](N(C)C)[C@@H]3C[C@@H]1C2)C(C)(C)C [Example 59, isobutyl 2-{[(5aR,6aS,7S,10aS)-9-(aminocarbonyl)-4,7-bis(dimethylamino)-1,8,10a,11-tetrahydroxy-10,12-dioxo-5,5a,6,6a,7,10,10a,12-octahydrotetracen-2-yl]amino}-2-oxoethyl(tert-butyl)carbamate]
MIC ([1]; GC2236, read-out: MINIMAL INHIBITORY CONCENTRATION MIC, Human Serum): > 64 µg/mL | MIC ([1]; GC2236, read-out: MINIMAL INHIBITORY CONCENTRATION MIC, Mouse Serum): > 64 µg/mL | MIC ([1]; GC2236, read-out: MINIMAL INHIBITORY CONCENTRATION MIC, Water): > 64 µg/mL | MIC ([2]; GC2231, read-out: MINIMAL INHIBITORY CONCENTRATION MIC, Human Serum): > 64 µg/mL | MIC ([2]; GC2231, read-out: MINIMAL INHIBITORY CONCENTRATION MIC, Mouse Serum): > 64 µg/mL | MIC ([2]; GC2231, read-out: MINIMAL INHIBITORY CONCENTRATION MIC, Water): > 64 µg/mL | MIC ([3]; GC2235, read-out: MINIMAL INHIBITORY CONCENTRATION MIC, Human Serum): > 64 µg/mL | MIC ([3]; GC2235, read-out: MINIMAL INHIBITORY CONCENTRATION MIC, Mouse Serum): > 64 µg/mL | MIC ([3]; GC2235, read-out: MINIMAL INHIBITORY CONCENTRATION MIC, Water): > 64 µg/mL | MIC ([4]; GC2233, read-out: MINIMAL INHIBITORY CONCENTRATION MIC, Human Serum): > 64 µg/mL | MIC ([4]; GC2233, read-out: MINIMAL INHIBITORY CONCENTRATION MIC, Mouse Serum): > 64 µg/mL | MIC ([4]; GC2233, read-out: MINIMAL INHIBITORY CONCENTRATION MIC, Water): > 64 µg/mL | MIC ([5]; GC2234, read-out: MINIMAL INHIBITORY CONCENTRATION MIC, Human Serum): > 64 µg/mL | MIC ([5]; GC2234, read-out: MINIMAL INHIBITORY CONCENTRATION MIC, Mouse Serum): > 64 µg/mL | MIC ([5]; GC2234, read-out: MINIMAL INHIBITORY CONCENTRATION MIC, Water): > 64 µg/mL | MIC ([6]; GC2272, read-out: MINIMAL INHIBITORY CONCENTRATION MIC, Human Serum): > 64 µg/mL | MIC ([6]; GC2272, read-out: MINIMAL INHIBITORY CONCENTRATION MIC, Mouse Serum): 64 µg/mL (≈ 93.3 µM) | MIC ([6]; GC2272, read-out: MINIMAL INHIBITORY CONCENTRATION MIC, Water): > 64 µg/mL | MIC ([7]; GC4560, read-out: MINIMAL INHIBITORY CONCENTRATION MIC, Human Serum): 4 µg/mL (≈ 5.83 µM) | MIC ([7]; GC4560, read-out: MINIMAL INHIBITORY CONCENTRATION MIC, Mouse Serum): 4 µg/mL (≈ 5.83 µM) | MIC ([7]; GC4560, read-out: MINIMAL INHIBITORY CONCENTRATION MIC, Water): 4 µg/mL (≈ 5.83 µM) | MIC ([8]; GC6465, read-out: MINIMAL INHIBITORY CONCENTRATION MIC, Human Serum): > 64 µg/mL | MIC ([8]; GC6465, read-out: MINIMAL INHIBITORY CONCENTRATION MIC, Mouse Serum): 32 µg/mL (≈ 46.7 µM) | MIC ([8]; GC6465, read-out: MINIMAL INHIBITORY CONCENTRATION MIC, Water): > 64 µg/mL | MIC ([9]; GC2203, read-out: MINIMAL INHIBITORY CONCENTRATION MIC, Human Serum): > 64 µg/mL | MIC ([9]; GC2203, read-out: MINIMAL INHIBITORY CONCENTRATION MIC, Mouse Serum): > 64 µg/mL | MIC ([9]; GC2203, read-out: MINIMAL INHIBITORY CONCENTRATION MIC, Water): > 64 µg/mL | MIC [10, 21]: > 64 µg/mL | MIC [10, 22]: > 64 µg/mL | MIC [10, 23]: > 64 µg/mL | MIC ([11]; GC1131, read-out: MINIMAL INHIBITORY CONCENTRATION MIC, Human Serum): 4 µg/mL (≈ 5.83 µM) | MIC ([11]; GC1131, read-out: MINIMAL INHIBITORY CONCENTRATION MIC, Mouse Serum): 4 µg/mL (≈ 5.83 µM) | MIC ([11]; GC1131, read-out: MINIMAL INHIBITORY CONCENTRATION MIC, Water): 4 µg/mL (≈ 5.83 µM) | MIC ([12]; GC6466, read-out: MINIMAL INHIBITORY CONCENTRATION MIC, Human Serum): 4 µg/mL (≈ 5.83 µM) | MIC ([12]; GC6466, read-out: MINIMAL INHIBITORY CONCENTRATION MIC, Mouse Serum): 4 µg/mL (≈ 5.83 µM) | MIC ([12]; GC6466, read-out: MINIMAL INHIBITORY CONCENTRATION MIC, Water): 8 µg/mL (≈ 11.7 µM) | MIC ([13]; GC6467, read-out: MINIMAL INHIBITORY CONCENTRATION MIC, Human Serum): 4 µg/mL (≈ 5.83 µM) | MIC ([13]; GC6467, read-out: MINIMAL INHIBITORY CONCENTRATION MIC, Mouse Serum): 4 µg/mL (≈ 5.83 µM) | MIC ([13]; GC6467, read-out: MINIMAL INHIBITORY CONCENTRATION MIC, Water): 4 µg/mL (≈ 5.83 µM) | MIC ([14]; GC1079, read-out: MINIMAL INHIBITORY CONCENTRATION MIC, Human Serum): 2 µg/mL (≈ 2.92 µM) | MIC ([14]; GC1079, read-out: MINIMAL INHIBITORY CONCENTRATION MIC, Mouse Serum): 4 µg/mL (≈ 5.83 µM) | MIC ([14]; GC1079, read-out: MINIMAL INHIBITORY CONCENTRATION MIC, Water): 8 µg/mL (≈ 11.7 µM) | MIC ([15]; GC4935, read-out: MINIMAL INHIBITORY CONCENTRATION MIC, Human Serum): 4 µg/mL (≈ 5.83 µM) | MIC ([15]; GC4935, read-out: MINIMAL INHIBITORY CONCENTRATION MIC, Mouse Serum): 4 µg/mL (≈ 5.83 µM) | MIC ([15]; GC4935, read-out: MINIMAL INHIBITORY CONCENTRATION MIC, Water): 4 µg/mL (≈ 5.83 µM) | MIC ([16]; GC4555, read-out: MINIMAL INHIBITORY CONCENTRATION MIC, Human Serum): 4 µg/mL (≈ 5.83 µM) | MIC ([16]; GC4555, read-out: MINIMAL INHIBITORY CONCENTRATION MIC, Mouse Serum): 4 µg/mL (≈ 5.83 µM) | MIC ([16]; GC4555, read-out: MINIMAL INHIBITORY CONCENTRATION MIC, Water): 4 µg/mL (≈ 5.83 µM) | MIC ([17]; GC2267, read-out: MINIMAL INHIBITORY CONCENTRATION MIC, Human Serum): 4 µg/mL (≈ 5.83 µM) | MIC ([17]; GC2267, read-out: MINIMAL INHIBITORY CONCENTRATION MIC, Mouse Serum): 4 µg/mL (≈ 5.83 µM) | MIC ([17]; GC2267, read-out: MINIMAL INHIBITORY CONCENTRATION MIC, Water): 4 µg/mL (≈ 5.83 µM) | MIC ([18]; GC4556, read-out: MINIMAL INHIBITORY CONCENTRATION MIC, Human Serum): 4 µg/mL (≈ 5.83 µM) | MIC ([18]; GC4556, read-out: MINIMAL INHIBITORY CONCENTRATION MIC, Mouse Serum): 4 µg/mL (≈ 5.83 µM) | MIC ([18]; GC4556, read-out: MINIMAL INHIBITORY CONCENTRATION MIC, Water): 4 µg/mL (≈ 5.83 µM) | MIC [19, 21]: 4 µg/mL (≈ 5.83 µM) | MIC [19, 22]: 4 µg/mL (≈ 5.83 µM) | MIC [19, 23]: 4 µg/mL (≈ 5.83 µM) | MIC ([20]; MRSA, read-out: Range of MIC, Staph (Mouse Serum)): 4 µg/mL (≈ 5.83 µM) | MIC ([20]; MRSA, read-out: Range of MIC, Staph (Water)): 4 to 8 µg/mL (≈ 5.83 to 11.7 µM) | MIC ([20]; read-out: Minimum inhibitory concentration (MIC), Staph (Human Serum)): 2 to 4 µg/mL (≈ 2.92 to 5.83 µM) | MIC ([20]; read-out: Minimum inhibitory concentration (MIC), Staph (Water)): 4 to 8 µg/mL (≈ 5.83 to 11.7 µM)
